System: SEM cells
Assay: cell viability relative to DMSO control; higher = less cytotoxic
Conditions: 48 h
Summary of the method: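 NOMO1, SEM and P12-Ichikawa leukemia cells spent at least four passages adapting to each medium before use. They were seeded at 500 cells/well (NOMO1, SEM) or 1000 cells/well (P12-Ichikawa) in 5 μl in 1536-well plates and pin-dosed with library compounds in DMSO at 11 threefold steps from 47 μM down to 0.79 nM. After 48 h at 37°C, CellTiter-Glo One luminescence was read. Viability is reported as a percentage of the DMSO wells on each plate, with cell-free wells as background.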

[1] = HPLM + 10% dialyzed FBS, 0.000781 µM
[2] = HPLM + 10% dialyzed FBS, 0.00234 µM
[3] = HPLM + 10% dialyzed FBS, 0.00702 µM
[4] = HPLM + 10% dialyzed FBS, 0.0211 µM
[5] = HPLM + 10% dialyzed FBS, 0.0632 µM
[6] = HPLM + 10% dialyzed FBS, 0.19 µM
[7] = HPLM + 10% dialyzed FBS, 0.569 µM
[8] = HPLM + 10% dialyzed FBS, 1.71 µM
[9] = HPLM + 10% dialyzed FBS, 5.12 µM
[10] = HPLM + 10% dialyzed FBS, 15.4 µM
[11] = HPLM + 10% dialyzed FBS, 46.1 µM
[12] = RPMI 5 mM glucose + 10% FBS, 0.000781 µM
[13] = RPMI 5 mM glucose + 10% FBS, 0.00234 µM
[14] = RPMI 5 mM glucose + 10% FBS, 0.00702 µM
[15] = RPMI 5 mM glucose + 10% FBS, 0.0211 µM
[16] = RPMI 5 mM glucose + 10% FBS, 0.0632 µM
[17] = RPMI 5 mM glucose + 10% FBS, 0.19 µM
[18] = RPMI 5 mM glucose + 10% FBS, 0.569 µM
[19] = RPMI 5 mM glucose + 10% FBS, 1.71 µM
[20] = RPMI 5 mM glucose + 10% FBS, 5.12 µM
[21] = RPMI 5 mM glucose + 10% FBS, 15.4 µM
[22] = RPMI 5 mM glucose + 10% FBS, 46.1 µM
[23] = RPMI 5 mM glucose + 10% dialyzed FBS, 0.000781 µM
[24] = RPMI 5 mM glucose + 10% dialyzed FBS, 0.00234 µM
[25] = RPMI 5 mM glucose + 10% dialyzed FBS, 0.00702 µM
[26] = RPMI 5 mM glucose + 10% dialyzed FBS, 0.0211 µM
[27] = RPMI 5 mM glucose + 10% dialyzed FBS, 0.0632 µM
[28] = RPMI 5 mM glucose + 10% dialyzed FBS, 0.19 µM
[29] = RPMI 5 mM glucose + 10% dialyzed FBS, 0.569 µM
[30] = RPMI 5 mM glucose + 10% dialyzed FBS, 1.71 µM
[31] = RPMI 5 mM glucose + 10% dialyzed FBS, 5.12 µM
[32] = RPMI 5 mM glucose + 10% dialyzed FBS, 15.4 µM
[33] = RPMI 5 mM glucose + 10% dialyzed FBS, 46.1 µM

| SMILES | cell viability [1] [%] | cell viability [2] [%] | cell viability [3] [%] | cell viability [4] [%] | cell viability [5] [%] | cell viability [6] [%] | cell viability [7] [%] | cell viability [8] [%] | cell viability [9] [%] | cell viability [10] [%] | cell viability [11] [%] | cell viability [12] [%] | cell viability [13] [%] | cell viability [14] [%] | cell viability [15] [%] | cell viability [16] [%] | cell viability [17] [%] | cell viability [18] [%] | cell viability [19] [%] | cell viability [20] [%] | cell viability [21] [%] | cell viability [22] [%] | cell viability [23] [%] | cell viability [24] [%] | cell viability [25] [%] | cell viability [26] [%] | cell viability [27] [%] | cell viability [28] [%] | cell viability [29] [%] | cell viability [30] [%] | cell viability [31] [%] | cell viability [32] [%] | cell viability [33] [%] |
| --- | --- | --- | --- | --- | --- | --- | --- | --- | --- | --- | --- | --- | --- | --- | --- | --- | --- | --- | --- | --- | --- | --- | --- | --- | --- | --- | --- | --- | --- | --- | --- | --- | --- |
| ClC1=CC=C(CCCOC/2=N/NC(=O)C(=C2NCC3=CN=CC=C3)/Br)C=C1 | 105 | 115 | 112 | 115 | 116 | 115 | 70.8 | 30.2 | 32.7 | 16 | 7.78 | 121 | 119 | 130 | 113 | 104 | 114 | 103 | 65.1 | 72.2 | 26.9 | 8.69 | 116 | 133 | 123 | 112 | 125 | 126 | 101 | 93.8 | 84.1 | 49.7 | 10 |
| Cc1c[nH]c(/C=C2\C(=O)Nc3ccccc32)c1CCC(=O)O | 102 | 107 | 112 | 103 | 89.8 | 90.1 | 69.7 | 51.6 | 42.6 | 26.7 | 39 | 61.2 | 83.1 | 83.6 | 64.7 | 72.7 | 49.3 | 50.6 | 34.1 | 27.6 | 28.1 | 26.6 | 107 | 105 | 99.6 | 94.7 | 90.8 | 75.8 | 67.6 | 47.1 | 33.6 | 25.7 | 46.5 |
| Clc1cccc(-c2nnnn2Cc2cccnc2)c1Cl | 79.7 | 81.9 | 67 | 92.9 | 101 | 103 | 92.6 | 57.7 | 49.4 | 50.2 | 45 | 101 | 92 | 70.1 | 102 | 95.3 | 95 | 74.6 | 46.4 | 40.4 | 42 | 35.9 | 87.5 | 85.7 | 75 | 93.4 | 91.7 | 99.4 | 102 | 62 | 56 | 58.4 | 46.6 |
| Cc1[nH]c(/C=C2\C(=O)Nc3ccc([S+](=O)([O-])N(C)c4cccc(Cl)c4)cc32)c(C)c1C(=O)N1CCN(C)CC1 | 101 | 120 | 113 | 125 | 129 | 108 | 114 | 98.3 | 71.5 | 38.6 | 2.39 | 98.4 | 111 | 118 | 107 | 96.9 | 82 | 106 | 86.5 | 54.3 | 31.3 | 1.69 | – | – | – | – | – | – | – | – | – | – | – |
| CCNC(=O)C[C@@H]1\N=C(C2=CC=C(Cl)C=C2)/C3=C(C=CC(=C3)OC)[N]4C(=NN=C14)C | – | – | – | – | – | – | – | – | – | – | – | – | – | – | – | – | – | – | – | – | – | – | 106 | 114 | 107 | 105 | 91.1 | 90.2 | 63.8 | 42.9 | 19.6 | 6.54 | 3.14 |
| C#Cc1cccc(Nc2ncnc3cc(OCCOC)c(OCCO)cc23)c1 | 104 | 113 | 98.3 | 117 | 116 | 123 | 110 | 105 | 96.8 | 69.1 | 20 | – | – | – | – | – | – | – | – | – | – | – | 114 | 107 | 118 | 114 | 116 | 103 | 105 | 88.4 | 94.9 | 62.5 | 14.5 |
| CC#C[C@]1(O)CC[C@H]2[C@@H]/3CCC/4=C/C(=O)CCC4=C3[C@H](C[C@]12C)C5=CC=C(C=C5)N(C)C | 76.6 | 74.8 | 88.3 | 80.4 | 68.9 | 87.4 | 84.1 | 89.9 | 89.9 | 86.1 | 58.7 | 76 | 84.6 | 99.9 | 102 | 96 | 86.3 | 105 | 92.7 | 96.1 | 73 | 58.3 | 87.2 | 91.6 | 101 | 110 | 92 | 90.3 | 96 | 84 | 92.8 | 83 | 49.5 |
| Cc1nc(Nc2ncc(C(=O)Nc3c(C)cccc3Cl)s2)cc(N2CCN(CCO)CC2)n1 | 88.1 | 106 | 93.3 | 98.3 | 91.7 | 92 | 80.2 | 81.9 | 54.9 | 34.9 | 29.9 | 66.6 | 68.9 | 64.9 | 78.4 | 68.2 | 66.1 | 74.7 | 69.9 | 60.1 | 17.5 | 14.8 | 100 | 102 | 106 | 99.6 | 104 | 99.9 | 88.3 | 79.2 | 50.3 | 26.4 | 25.2 |
| O=C1CSC(=O)N1C(CCc1ccncc1)COc1ccc(-c2cccc([N+](=O)[O-])c2)cc1 (stereo not drawn) | 119 | 123 | 109 | 115 | 118 | 92.4 | 114 | 95.6 | 111 | 112 | 79.5 | 123 | 118 | 132 | 118 | 112 | 117 | 117 | 109 | 98.6 | 82.7 | 48.9 | 105 | 131 | 105 | 123 | 135 | 116 | 128 | 117 | 106 | 116 | 75.1 |
